Read-outs that look alike come from different tables or passages of the source.
Key:
[1] = tested on: DENV-3; assay: Viral yield assay against DENV-3 in Vero cells; assay type: cell-based; conditions: Dengue virus
In short: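 Progeny virus from compound-treated Vero monolayers infected at an MOI of 0.1 is collected after 48 h at 37° C and titered on Vero cells. DMSO serves as control.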

[2] = tested on: DENV-4; assay: Viral yield assay against DENV-4 in Vero cells; assay type: cell-based; conditions: Dengue virus
In short: (§1)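 Yield reduction, Vero; MOI 0.1; compound vs DMSO; 37° C; harvest 48 h p.i.; titer on Vero; EC50 fitted. Other serotypes run the same way.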

[3] = tested on: DENV-1; assay: Viral yield assay against DENV-1 in Vero cells; assay type: cell-based; conditions: Dengue virus
In short: as §1

[4] = tested on: Dengue-2 (Strain New Guinea C); assay: Viral yield assay against Dengue-2 in Vero cells; assay type: cell-based, Dengue virus; conditions: Dengue virus, read-out: Activity (EC50 in μM) DENV-2
In short: as §1

[5] = DENV2, viral yield assay, Vero cells, MOI 0.1, 48 hours post infection

Structure (SMILES): Nc1c(C(=O)Nc2ccc(Cl)c(Cl)c2)sc2nc(-c3ccc(Cl)cc3)ccc12 [Compound 342, 3-amino-6-(4-chlorophenyl)-N-(3,4-dichloro-phenyl)thieno [2,3-b]pyridine-2-carboxamide]
- EC50 ([1]; DENV3, viral yield assay): < 5 µM
- EC50 ([2]; DENV4, viral yield assay): < 5 µM
- EC50 ([3]; DENV1, viral yield assay): < 5 µM
- EC50 [4, 5]: < 5 µM

Structure (SMILES): Nc1c(C(=O)Nc2ccc(Br)cc2)sc2nc(-c3ccco3)ccc12 [Compound 439, 3-amino-N-(4-bromophenyl)-6-(2-furyl)thieno[2,3-b]pyridine-2-carboxamide]
- EC50 ([1]; DENV3, viral yield assay): < 5 µM
- EC50 ([2]; DENV4, viral yield assay): < 5 µM
- EC50 ([3]; DENV1, viral yield assay): < 5 µM
- EC50 ([4]; DENV2, Vero, 48 h): < 5 µM

Structure (SMILES): Nc1c(C(=O)Nc2ccc(OC(F)F)cc2)sc2nc(-c3cccc(OC(F)F)c3)ccc12 [Compound 345, 3-amino-6-[3-(difluoromethoxy)phenyl]-N-[4-(difluoromethoxy)phenyl]thieno[2,3-b]pyridine-2-carboxamide]
- EC50 ([1]; DENV3, viral yield assay): < 5 µM
- EC50 ([2]; DENV4, viral yield assay): < 5 µM
- EC50 ([3]; DENV1, viral yield assay): < 5 µM
- EC50 [4, 5]: < 5 µM

Structure (SMILES): C[N+](C)(C)CC(=O)Nc1c(C(=O)Nc2cccc(C(F)(F)F)c2)sc2nc(-c3cccs3)ccc12 [Compound 309, Trimethyl-[2-oxo-2-[[6-(2-thienyl)-2-[[3-(trifluoromethyl)phenyl]carbamoyl]thieno[2,3-b]pyridin-3-yl]amino]ethyl]ammonium]
- EC50 ([1]; DENV3): < 5 µM
- EC50 ([2]; DENV4): < 5 µM
- EC50 ([3]; DENV1): < 5 µM
- EC50 ([4]; DENV2, Vero cells): < 5 µM

Structure (SMILES): COc1ccc(-c2ccc3c(N)c(C(=O)Nc4cccc(C(F)(F)F)c4)sc3n2)cc1 [Compound 472, 3-amino-6-(4-methoxyphenyl)-N-[3-(trifluoromethyl)phenyl]thieno[2,3-b] pyridine-2-carboxamide]
- EC50 ([1]; DENV3, viral yield assay): < 5 µM
- EC50 ([2]; DENV4, viral yield assay): < 5 µM
- EC50 ([3]; DENV1, viral yield assay): < 5 µM
- EC50 [4, 5]: < 5 µM

Structure (SMILES): NCC(=O)Nc1c(C(=O)Nc2nnc(-c3ccccc3)s2)sc2nc3c(cc12)CCCCC3 [Compound 296, 3-(2-aminoacetamido)-N-(5-phenyl-1,3,4-thiadiazol-2-yl)-6,7,8,9-tetrahydro-5H-cyclohepta[b]thieno[3,2-e]pyridine-2-carboxamide]
- EC50 ([1]; DENV3): < 5 µM
- EC50 ([2]; DENV4): < 5 µM
- EC50 ([3]; DENV1): < 5 µM
- EC50 ([4]; DENV2, Vero cells): < 5 µM

Structure (SMILES): COc1cccc(-c2ccc3c(N)c(C(=O)Nc4ccc(Cl)c(C(F)(F)F)c4)sc3n2)c1 [Compound 498, 3-amino-N-[4-chloro-3-(trifluoromethyl)phenyl]-6-(3-methoxyphenyl)thieno [2,3-b]pyridine-2-carboxamide]
- EC50 ([1]; DENV3, viral yield assay): < 5 µM
- EC50 ([2]; DENV4, viral yield assay): < 5 µM
- EC50 ([3]; DENV1, viral yield assay): < 5 µM
- EC50 [4, 5]: < 5 µM

Structure (SMILES): CNc1c(C(=O)Nc2nnc(-c3ccccc3)s2)sc2nc3c(cc12)CCCCC3 [Compound 359, 3-(methylamino)-N-(5-phenyl-1,3,4-thiadiazol-2-yl)-6,7,8,9-tetrahydro-5H-cyclohepta[b]thieno[3,2-e]pyridine-2-carboxamide]
- EC50 ([1]; DENV3): > 25 µM
- EC50 ([2]; DENV4): 5 to 25 µM
- EC50 ([3]; DENV1): < 5 µM
- EC50 ([4]; DENV2, Vero cells): < 5 µM

Structure (SMILES): O=C(Nc1c(C(=O)Nc2nnc(-c3ccccc3)s2)sc2nc3c(cc12)CCCCC3)c1ccncc1 [Compound 298, 3-(isonicotinamido)-N-(5-phenyl-1,3,4-thiadiazol-2-yl)-6,7,8,9-tetrahydro-5H-cyclohepta[b]thieno[3,2-e]pyridine-2-carboxamide]
- EC50 ([1]; DENV3): < 5 µM
- EC50 ([2]; DENV4): < 5 µM
- EC50 ([3]; DENV1): < 5 µM
- EC50 ([4]; DENV2, Vero cells): < 5 µM

Structure (SMILES): Nc1c(C(=O)Nc2nnc(-c3ccccc3)s2)sc2nc(Cl)ccc12 [Compound 292]
- EC50 ([1]; DENV3, viral yield assay): < 5 µM
- EC50 ([2]; DENV4, viral yield assay): < 5 µM
- EC50 ([3]; DENV1, viral yield assay): < 5 µM
- EC50 [4, 5]: < 5 µM

Structure (SMILES): COc1ccc(-c2ccc3c(N)c(C(=O)Nc4ccc(C(C)=O)cc4)sc3n2)cc1 [Compound 494, N-(4-acetylphenyl)-3-amino-6-(4-methoxyphenyl)thieno[2,3-b]pyridine-2-carboxamide]
- EC50 ([1]; DENV3, viral yield assay): 5 to 25 µM
- EC50 ([2]; DENV4, viral yield assay): < 5 µM
- EC50 ([3]; DENV1, viral yield assay): < 5 µM
- EC50 ([4]; DENV2, Vero, 48 h): < 5 µM

Structure (SMILES): Nc1c(C(=O)Nc2ccc(OC(F)(F)F)cc2)sc2nc(-c3ccc(Cl)cc3)ccc12 [Compound 331, 3-amino-6-(4-chlorophenyl)-N-[4-(trifluoromethoxy)phenyl]thieno[2,3-b]pyridine-2-carboxamide]
- EC50 ([1]; DENV3, viral yield assay): < 5 µM
- EC50 ([2]; DENV4, viral yield assay): 5 to 25 µM
- EC50 ([3]; DENV1, viral yield assay): < 5 µM
- EC50 [4, 5]: < 5 µM

Structure (SMILES): COc1cccc(-c2ccc3c(N)c(C(=O)Nc4ccccc4C(F)(F)F)sc3n2)c1 [Compound 449, 3-amino-6-(3-methoxyphenyl)-N-[2-(trifluoromethyl)phenyl]thieno[2,3-b] pyridine-2-carboxamide]
- EC50 ([1]; DENV3, viral yield assay): < 5 µM
- EC50 ([2]; DENV4, viral yield assay): < 5 µM
- EC50 ([3]; DENV1, viral yield assay): < 5 µM
- EC50 [4, 5]: < 5 µM

Structure (SMILES): Cc1cc(Br)ccc1NC(=O)c1sc2nc(-c3ccc4c(c3)OCO4)ccc2c1N [Compound 497, 3-amino-6-(1,3-benzodioxol-5-yl)-N-(4-bromo-2-methyl-phenyl)thieno[2,3-b] pyridine-2-carboxamide]
- EC50 ([1]; DENV3, viral yield assay): < 5 µM
- EC50 ([2]; DENV4, viral yield assay): < 5 µM
- EC50 ([3]; DENV1, viral yield assay): < 5 µM
- EC50 [4, 5]: < 5 µM

Structure (SMILES): Nc1c(C(=O)Nc2cccc(F)c2)sc2nc(-c3ccc4c(c3)OCO4)ccc12 [Compound 602, 3-amino-6-(1,3-benzodioxol-5-yl)-N-(3-fluorophenyl)thieno[2,3-b]pyridine-2-carboxamide]
- EC50 ([1]; DENV3, viral yield assay): < 5 µM
- EC50 ([2]; DENV4, viral yield assay): 5 to 25 µM
- EC50 ([3]; DENV1, viral yield assay): < 5 µM
- EC50 ([4]; DENV2, Vero, 48 h): < 5 µM

Structure (SMILES): COC(OC)c1ccc2c(N)c(C(=O)Nc3ccc(C(F)(F)F)cc3)sc2n1 [Compound 482, 3-amino-6-(dimethoxymethyl)-N-[4-(trifluoromethyl)phenyl]thieno[2,3-b] pyridine-2-carboxamide]
- EC50 ([1]; DENV3, viral yield assay): < 5 µM
- EC50 ([2]; DENV4, viral yield assay): < 5 µM
- EC50 ([3]; DENV1, viral yield assay): < 5 µM
- EC50 [4, 5]: < 5 µM

Structure (SMILES): COc1cccc(-c2ccc3c(N)c(C(=O)Nc4ccccc4SCC(C)C)sc3n2)c1 [Compound 571, 3-amino-N-(2-isobutylsulfanylphenyl)-6-(3-methoxyphenyl)thieno[2,3-b] pyridine-2-carboxamide]
- EC50 ([1]; DENV3, viral yield assay): < 5 µM
- EC50 ([2]; DENV4, viral yield assay): < 5 µM
- EC50 ([3]; DENV1, viral yield assay): < 5 µM
- EC50 [4, 5]: < 5 µM

Structure (SMILES): Nc1c(C(=O)Nc2ccc(Br)cn2)sc2nc(-c3ccc(Cl)cc3)ccc12 [Compound 335, 3-amino-N-(5-bromo-2-pyridyl)-6-(4-chlorophenyl)thieno [2,3-b]pyridine-2-carboxamide]
- EC50 ([1]; DENV3, viral yield assay): < 5 µM
- EC50 ([2]; DENV4, viral yield assay): < 5 µM
- EC50 ([3]; DENV1, viral yield assay): < 5 µM
- EC50 [4, 5]: < 5 µM

Structure (SMILES): O=C(Nc1c(C(=O)Nc2nnc(-c3ccccc3)s2)sc2nc3c(cc12)CCCCC3)c1ccccc1 [Compound 285, 3-benzamido-N-(5-phenyl-1,3,4-thiadiazol-2-yl)-6,7,8,9-tetrahydro-5H-cyclohepta[b]thieno[3,2-e]pyridine-2-carboxamide]
- EC50 ([1]; DENV3): < 5 µM
- EC50 ([2]; DENV4): < 5 µM
- EC50 ([3]; DENV1): < 5 µM
- EC50 ([4]; DENV2, Vero cells): < 5 µM

Structure (SMILES): CC(F)(F)c1ccc(NC(=O)c2sc3nc(-c4ccc(Cl)cc4)ccc3c2N)cc1 [Compound 338, 3-amino-6-(4-chlorophenyl)-N-[4-(1,1-difluoro-ethyl)phenyl] thieno[2,3-b] pyridine-2-carboxamide]
- EC50 ([1]; DENV3, viral yield assay): < 5 µM
- EC50 ([2]; DENV4, viral yield assay): < 5 µM
- EC50 ([3]; DENV1, viral yield assay): < 5 µM
- EC50 [4, 5]: < 5 µM

Structure (SMILES): O=C(O)CC(=O)Nc1c(C(=O)Nc2cccc(C(F)(F)F)c2)sc2nc(-c3cccs3)ccc12 [Compound 302, 3-oxo-3-[[6-(2-thienyl)-2-[[3-(trifluoromethyl)phenyl]carbamoyl]thieno[2,3-b]pyridin-3-yl]amino]propanoic acid]
- EC50 ([1]; DENV3): 5 to 25 µM
- EC50 ([2]; DENV4): < 5 µM
- EC50 ([3]; DENV1): < 5 µM
- EC50 ([4]; DENV2, Vero cells): < 5 µM

Structure (SMILES): Nc1c(C(=O)Nc2ccc(Cl)cc2)sc2nc(-c3ccc(F)cc3)ccc12 [Compound 620, 3-amino-N-(4-chlorophenyl)-6-(4-fluorophenyl)thieno[2,3-b]pyridine-2-carboxamide]
- EC50 ([1]; DENV3, viral yield assay): < 5 µM
- EC50 ([2]; DENV4, viral yield assay): < 5 µM
- EC50 ([3]; DENV1, viral yield assay): < 5 µM
- EC50 [4, 5]: < 5 µM

Structure (SMILES): COc1ccc(-c2ccc3c(N)c(C(=O)Nc4ccc(C)c(C)c4)sc3n2)cc1OC [Compound 577, 3-amino-6-(3,4-dimethoxyphenyl)-N-(3,4-dimethylphenyl)thieno[2,3-b] pyridine-2-carboxamide]
- EC50 ([1]; DENV3, viral yield assay): < 5 µM
- EC50 ([2]; DENV4, viral yield assay): < 5 µM
- EC50 ([3]; DENV1, viral yield assay): < 5 µM
- EC50 [4, 5]: < 5 µM

Structure (SMILES): COc1cccc(-c2ccc3c(N)c(C(=O)Nc4cccc(C(F)(F)F)c4)sc3n2)c1 [Compound 450, 3-amino-6-(3-methoxyphenyl)-N-[3-(trifluoromethyl)phenyl]thieno[2,3-b] pyridine-2-carboxamide]
- EC50 ([1]; DENV3, viral yield assay): < 5 µM
- EC50 ([2]; DENV4, viral yield assay): < 5 µM
- EC50 ([3]; DENV1, viral yield assay): < 5 µM
- EC50 [4, 5]: < 5 µM

Structure (SMILES): Cc1ccc(NC(=O)c2sc3nc(-c4ccc(C)cc4)ccc3c2N)cc1 [Compound 636, 3-amino-N,6-bis(p-tolyl)thieno[2,3-b] pyridine-2-carboxamide]
- EC50 ([1]; DENV3, viral yield assay): < 5 µM
- EC50 ([2]; DENV4, viral yield assay): < 5 µM
- EC50 ([3]; DENV1, viral yield assay): < 5 µM
- EC50 [4, 5]: < 5 µM

Structure (SMILES): COc1cc(NC(=O)c2sc3nc(-c4cccs4)ccc3c2N)cc(OC)c1OC [Compound 473, 3-amino-6-(2-thienyl)-N-(3,4,5-trimethoxyphenyl)thieno[2,3-b]pyridine-2-carboxamide]
- EC50 ([1]; DENV3, viral yield assay): < 5 µM
- EC50 ([2]; DENV4, viral yield assay): < 5 µM
- EC50 ([3]; DENV1, viral yield assay): < 5 µM
- EC50 ([4]; DENV2, Vero, 48 h): < 5 µM

Structure (SMILES): C=CCSc1nc2ccc(NC(=O)c3sc4nc(-c5cccc(OC)c5)ccc4c3N)cc2s1 [Compound 569, N-(2-allylsulfanyl-1,3-benzothiazol-6-yl)-3-amino-6-(3-methoxyphenyl)thieno [2,3-b]pyridine-2-carboxamide]
- EC50 ([1]; DENV3, viral yield assay): 5 to 25 µM
- EC50 ([2]; DENV4, viral yield assay): < 5 µM
- EC50 ([3]; DENV1, viral yield assay): < 5 µM
- EC50 [4, 5]: < 5 µM

Structure (SMILES): Nc1c(C(=O)Nc2ccc(F)cc2)sc2nc(-c3ccc(F)cc3)ccc12 [Compound 490, 3-amino-N,6-bis(4-fluorophenyl) thieno[2,3-b]pyridine-2-carboxamide]
- EC50 ([1]; DENV3, viral yield assay): 5 to 25 µM
- EC50 ([2]; DENV4, viral yield assay): < 5 µM
- EC50 ([3]; DENV1, viral yield assay): < 5 µM
- EC50 [4, 5]: < 5 µM
